Reference: paper PMC10387993, “New pyrimidine-N-β-D-glucosides: synthesis, biological evaluation, and molecular docking investigations” (Turkish Journal of Chemistry, 2023)
Converted amounts (≈) assume the structure as drawn. Where two headings read alike, the source gives them in different places.

Columns and labels:
Assay type in all cases: cell-based
[1] = test system: Hep3B; assay: cells; conditions: Homo sapiens; for GI50 / IC50 / IC (total growth inhibition): MTT; for IC50: read-out: IC50; for IC (total growth inhibition): read-out: TGI; for LC50 (concentration causing 50% net cell loss relative to time zero): read-out: LC50
Outline: (§1)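 Seed ~1 × 10^4 cells/well; final 200 μL. Add MTT in phenol-red-free RPMI 1640, 4 h. Solubilise formazan in DMSO + Sorenson's buffer, 30 min RT. Read 560/690 nm. ≥3 repeats.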

[2] = test system: A549; assay: cells; conditions: Homo sapiens; for LC50 (concentration causing 50% net cell loss): A549, read-out: LC50; for GI50 / IC50 / IC (total growth inhibition): A549, MTT; for IC50: read-out: IC50; for IC (total growth inhibition): read-out: TGI
Outline: as §1

[3] = test system: MCF7; assay: cells; conditions: Homo sapiens; for LC50 (concentration causing 50% net cell loss relative to time zero): MCF7, read-out: LC50; for GI50 / IC50 / IC (total growth inhibition): MCF7, MTT; for IC50: read-out: IC50; for IC (total growth inhibition): read-out: TGI
Outline: as §1

[4] = test system: C6 (Rat brain glioma); assay: cells; conditions: Rattus norvegicus; for LC50 (concentration giving 50% net cell loss relative to time zero): read-out: LC50; for GI50 / IC50 / IC (total growth inhibition): C6, MTT; for IC50: read-out: IC50; for IC (total growth inhibition): read-out: TGI
Outline: as §1

[5] = test system: HT29; assay: cells; conditions: Homo sapiens; for LC50 (concentration giving 50% net cell loss relative to time zero): HT-29, read-out: LC50; for GI50 / IC50 / IC (total growth inhibition): HT-29, HT29, MTT; for IC50: read-out: IC50; for IC (total growth inhibition): read-out: TGI
Outline: as §1

[6] = test system: HeLa; assay: cells; conditions: Homo sapiens; for GI50 / IC50 / IC (total growth inhibition): MTT; for IC50: read-out: IC50; for IC (total growth inhibition): read-out: TGI; for LC50 (concentration causing 50% net cell loss): read-out: LC50
Outline: as §1

[7] = test system: P. aeruginosa AGME ATCC 27853; assay: Microdilution MIC assay; conditions: Pseudomonas aeruginosa, ATCC27853; P. aeruginosa AGME ATCC 27853, 24 h at 35 °C
Outline: (§2)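 Visually scored microwell dilution test (35 °C, 24 h), endpoint no turbidity.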

[8] = test system: S. mutans ATCC 35668; assay: Microdilution MIC assay; conditions: S. mutans ATCC 35668, 24 h at 35 °C
Outline: as §2

[9] = test system: S. aureus MSSA ATCC 29213; assay: Microdilution MIC assay; conditions: Staphylococcus aureus, 24 h, S. aureus MSSA ATCC 29213, 24 h at 35 °C; read-out: MIC
Outline: as §2

[10] = test system: S. gordonii NCTC 7870; assay: Microdilution MIC assay; conditions: Streptococcus gordonii, NCTC7870; S. gordonii NCTC 7870, 24 h at 35 °C
Outline: as §2

[11] = test system: S. aureus ATCC 25923; assay: Microdilution MIC assay; conditions: Staphylococcus aureus, ATCC25923, 24 h, S. aureus ATCC 25923, 24 h at 35 °C; read-out: MIC
Outline: as §2

[12] = test system: E. coli ESBL ATCC 35218; assay: Microdilution MIC assay; conditions: Escherichia coli, ATCC35218; E. coli ESBL ATCC 35218, 24 h at 35 °C
Outline: as §2

[13] = test system: A. actinomycetemcomitans ATCC 33384; assay: Microdilution MIC assay; conditions: Aggregatibacter actinomycetemcomitans, ATCC33384; A. actinomycetemcomitans ATCC 33384, 24 h at 35 °C
Outline: as §2

[14] = test system: E. faecalis ATCC 29212; assay: Microdilution MIC assay; conditions: Enterococcus faecalis, ATCC29212, 24 h, E. faecalis ATCC 29212, 24 h at 35 °C; read-out: MIC
Outline: as §2

[15] = test system: E. faecalis VRE ATCC 19433; assay: Microdilution MIC assay; conditions: Enterococcus faecalis; E. faecalis VRE ATCC 19433, 24 h at 35 °C
Outline: as §2

[16] = test system: E. coli ATCC 25922; assay: Microdilution MIC assay; conditions: Escherichia coli, ATCC25922; E. coli ATCC 25922, 24 h at 35 °C
Outline: as §2

[17] = test system: S. aureus MRSA ATCC 46300; assay: Microdilution MIC assay; conditions: Staphylococcus aureus; S. aureus MRSA ATCC 46300, 24 h at 35 °C; read-out: MIC
Outline: as §2

[18] = test system: normal FL cells; assay: cells; conditions: FL normal cells, MTT; for IC50: read-out: IC50; for IC (total growth inhibition): read-out: TGI
Outline: as §1

[19] = Streptococcus mutans, ATCC35668, 24 h, read-out: MIC

In the case of `Cc1ccccc1-c1cc(-c2ccncc2)nc(N[C@@H]2O[C@H](CO)[C@@H](O)[C@H](O)[C@H]2O)n1` [Compound 3, N-[4-(2-methylphenyl)-6-pyridin-4-ylpyrimidin-2-yl]-β-D-glucopyranosylamine], the GI50 [1] is reported as 3.83 µg/mL (≈ 9.02 µM), the IC50 [1] is reported as over 500 µg/mL and the IC (total growth inhibition) [1] is reported as over 500 µg/mL. It also gave an LC50 (concentration causing 50% net cell loss relative to time zero) [1] of over 500 µg/mL, an LC50 (concentration causing 50% net cell loss) [2] of over 500 µg/mL and a GI50 [2] of 6.49 µg/mL (≈ 15.3 µM). The IC50 [2] was over 500 µg/mL, the IC (total growth inhibition) [2] was over 500 µg/mL and the LC50 (concentration causing 50% net cell loss relative to time zero) [3] was over 500 µg/mL. For the same compound, the GI50 [3] was 2.23 µg/mL (≈ 5.25 µM), the IC50 [3] was over 500 µg/mL and the IC (total growth inhibition) [3] was over 500 µg/mL. It also gave an LC50 (concentration giving 50% net cell loss relative to time zero) [4] of 252 µg/mL (≈ 594 µM), a GI50 [4] of 4.37 µg/mL (≈ 10.3 µM) and an IC50 [4] of 33.5 µg/mL (≈ 78.9 µM). The IC (total growth inhibition) [4] was 17.4 µg/mL, the LC50 (concentration giving 50% net cell loss relative to time zero) [5] was over 500 µg/mL and the GI50 [5] was 2.22 µg/mL (≈ 5.23 µM). It also gave an IC50 [5] of 78.4 µg/mL (≈ 185 µM), an IC (total growth inhibition) [5] of 230 µg/mL and a GI50 [6] of over 500 µg/mL. The IC50 [6] was over 500 µg/mL, the IC (total growth inhibition) [6] was over 500 µg/mL and the LC50 (concentration causing 50% net cell loss) [6] was over 500 µg/mL. For the same compound, the MIC [7] was over 1000 µg/mL, the MIC [8, 19] was 500 µg/mL (≈ 1180 µM) and the MIC [9] was 1000 µg/mL (≈ 2360 µM). The MIC [10] was 1000 µg/mL (≈ 2360 µM), the MIC [11] was 500 µg/mL (≈ 1180 µM) and the MIC [12] was over 1000 µg/mL. It also gave an MIC [13] of 500 µg/mL (≈ 1180 µM), an MIC [14] of over 1000 µg/mL and an MIC [15] of over 1000 µg/mL. It also gave an MIC [16] of over 1000 µg/mL, an MIC [17] of 1000 µg/mL (≈ 2360 µM) and a GI50 [18] of 6.56 µg/mL (≈ 15.5 µM). For the same compound, the IC50 [18] was over 500 µg/mL and the IC (total growth inhibition) [18] was over 500 µg/mL.
With `Cc1cccc(-c2cc(-c3ccccn3)nc(N[C@@H]3O[C@H](CO)[C@@H](O)[C@H](O)[C@H]3O)n2)c1` [Compound 4, N-[4-(3-methylphenyl)-6-pyridin-2-ylpyrimidin-2-yl]-β-D-glucopyranosylamine] the GI50 [1] was 4.4 µg/mL (≈ 10.4 µM), the IC50 [1] was 65.5 µg/mL (≈ 154 µM) and the IC (total growth inhibition) [1] was 67.8 µg/mL. It also gave an LC50 (concentration causing 50% net cell loss relative to time zero) [1] of over 500 µg/mL, an LC50 (concentration causing 50% net cell loss) [2] of over 500 µg/mL and a GI50 [2] of 19.4 µg/mL (≈ 45.8 µM). For the same compound, the IC50 [2] was over 500 µg/mL, the IC (total growth inhibition) [2] was over 500 µg/mL and the LC50 (concentration causing 50% net cell loss relative to time zero) [3] was over 500 µg/mL. It also gave a GI50 [3] of 3.44 µg/mL (≈ 8.1 µM), an IC50 [3] of over 500 µg/mL and an IC (total growth inhibition) [3] of over 500 µg/mL. The LC50 (concentration giving 50% net cell loss relative to time zero) [4] was 77.4 µg/mL (≈ 182 µM), the GI50 [4] was 8.13 µg/mL (≈ 19.2 µM) and the IC50 [4] was 27.8 µg/mL (≈ 65.4 µM). The IC (total growth inhibition) [4] was 20.5 µg/mL, the LC50 (concentration giving 50% net cell loss relative to time zero) [5] was over 500 µg/mL and the GI50 [5] was 4.63 µg/mL (≈ 10.9 µM). The IC50 [5] was 26.7 µg/mL (≈ 62.9 µM), the IC (total growth inhibition) [5] was 31.9 µg/mL and the GI50 [6] was 21.9 µg/mL (≈ 51.6 µM). It also gave an IC50 [6] of 52.2 µg/mL (≈ 123 µM), an IC (total growth inhibition) [6] of 46 µg/mL and an LC50 (concentration causing 50% net cell loss) [6] of 116 µg/mL (≈ 272 µM). For the same compound, the MIC [7] was over 1000 µg/mL, the MIC [8] was 125 µg/mL (≈ 294 µM) and the MIC [8, 19] was 62.5 to 125 µg/mL (≈ 147 to 294 µM). For the same compound, the MIC [9] was 250 µg/mL (≈ 589 µM), the MIC [10] was 250 µg/mL (≈ 589 µM) and the MIC [11] was 250 µg/mL (≈ 589 µM). It also gave an MIC [12] of over 1000 µg/mL, an MIC [13] of 250 µg/mL (≈ 589 µM) and an MIC [14] of 250 µg/mL (≈ 589 µM). It also gave an MIC [15] of over 1000 µg/mL, an MIC [16] of over 1000 µg/mL and an MIC [17] of 500 µg/mL (≈ 1180 µM). For the same compound, the GI50 [18] was 6.77 µg/mL (≈ 15.9 µM), the IC50 [18] was 78.1 µg/mL (≈ 184 µM) and the IC (total growth inhibition) [18] was 79.8 µg/mL.
